In article PMC7332102, “Ubiquitin activation is essential for schizont maturation in Plasmodium falciparum blood-stage development” (PLoS Pathogens, 2020):

Biological target: T1, PfUBA1 (ubiquitin activating enzyme, E1; PF3D7_1225800) (Plasmodium falciparum, UniProt Q8I5F9)
T1 construct: Thr39 to Lys1140, N-terminal His10-tag, insect cells; with ubiquitin (Cy5-labelled, M1C)
Test: Cy5-ubiquitin~E1 thioesterification gel assay with recombinant PfUBA1
Format: biochemical

T1 sequence (Q8I5F9 entry or part of it): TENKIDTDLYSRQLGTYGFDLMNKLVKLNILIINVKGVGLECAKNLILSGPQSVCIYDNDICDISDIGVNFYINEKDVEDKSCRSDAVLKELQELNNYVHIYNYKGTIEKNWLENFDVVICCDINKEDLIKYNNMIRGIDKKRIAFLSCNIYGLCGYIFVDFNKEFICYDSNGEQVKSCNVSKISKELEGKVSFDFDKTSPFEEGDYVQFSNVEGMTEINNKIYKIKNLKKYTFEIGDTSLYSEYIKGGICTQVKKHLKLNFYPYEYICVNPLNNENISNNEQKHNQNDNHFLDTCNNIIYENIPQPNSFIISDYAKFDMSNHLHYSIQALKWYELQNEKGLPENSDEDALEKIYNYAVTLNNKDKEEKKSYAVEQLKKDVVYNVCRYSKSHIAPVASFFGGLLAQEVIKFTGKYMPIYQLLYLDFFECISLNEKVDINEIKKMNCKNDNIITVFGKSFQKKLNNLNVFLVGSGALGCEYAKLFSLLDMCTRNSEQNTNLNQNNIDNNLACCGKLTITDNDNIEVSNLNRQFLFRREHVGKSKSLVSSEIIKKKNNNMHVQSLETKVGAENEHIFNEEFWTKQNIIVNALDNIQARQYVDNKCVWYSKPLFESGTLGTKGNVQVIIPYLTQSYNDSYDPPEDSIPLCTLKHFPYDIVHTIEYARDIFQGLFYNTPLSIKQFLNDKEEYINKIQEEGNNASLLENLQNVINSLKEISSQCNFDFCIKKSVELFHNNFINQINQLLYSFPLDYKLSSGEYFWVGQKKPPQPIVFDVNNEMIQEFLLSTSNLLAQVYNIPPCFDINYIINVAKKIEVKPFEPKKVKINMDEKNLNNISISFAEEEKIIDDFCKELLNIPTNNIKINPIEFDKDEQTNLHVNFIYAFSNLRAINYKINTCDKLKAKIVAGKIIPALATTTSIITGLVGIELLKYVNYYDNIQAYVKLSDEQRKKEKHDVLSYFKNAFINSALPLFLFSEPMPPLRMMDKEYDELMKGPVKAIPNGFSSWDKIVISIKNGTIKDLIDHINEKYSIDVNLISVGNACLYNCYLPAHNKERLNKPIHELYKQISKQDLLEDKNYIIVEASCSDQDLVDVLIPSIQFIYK

Structure (SMILES): NS(=O)(=O)OC[C@H]1C[C@@H](Nc2ccnc3cc(-c4cccc(SC(F)(F)F)c4)nn23)[C@H](O)[C@@H]1O [MLN7243]
- IC50: 1.4 ± 0.2 µM

Structure (SMILES): NS(=O)(=O)OC[C@@H]1C[C@@H](n2ccc3c(N[C@H]4CCc5ccccc54)ncnc32)C[C@@H]1O [MLN4924]
- IC50: 47 ± 5 µM
